A short description of the data set: Toxicity against Artemia salina. It is filed as organism-based. The conditions noted are these: in vivo.

Converted amounts (≈) assume the structure as drawn.

As a reminder, the LC50 is the concentration that kills 50% of the test population.

For the compound `CC(C)=CC1Oc2cc(O)c(O)cc2-c2oc3cc(O)cc(O)c3c(=O)c21` (stereo unspecified) [CYCLOCHAMPEDOL], the LC50 was found to be 15.1 µg/mL (≈ 41 µM).

For the origin of these results see ChEMBL document CHEMBL1158263, “A New Prenylated Flavone from Artocarpus champeden” (J Nat Prod, 1996).
